# Data as given in article PMC10141580, “Cyclic Dichalcogenides Extend the Reach of Bioreductive Prodrugs to Harness Thiol/Disulfide Oxidoreductases: Applications to seco-Duocarmycins Targeting the Thioredoxin System” (ACS Central Science, 2023).
# Like-named read-outs stand apart in the source and are kept apart here.
# Test system: NCI-60 standardized human tumor cell line panel
# Assay: cells
# Type: cell-based
# Details: for NCI-60 screening: Log(GI50): log10 of GI50 in M; for NCI-60 screening: Log(RedIndex): log10 reductive index vs P-CC60
compound,measurement,setting,value
COc1cc2cc(C(=O)N3C[C@@H](CCl)c4c3cc(OC(=O)N(CCC(=O)N3CCN(C)CC3)[C@H]3CCSSC3)c3ccccc43)[nH]c2c(OC)c1OC [P-SS60-CBI-TMI],NCI-60 screening: Log(GI50),786-0 (RE) cell line,-6.79
same,NCI-60 screening: Log(RedIndex),786-0 (RE) cell line,1.02
same,GI50,"786-0 (RE) cell line, read-out: NCI-60 screening: Raw GI50",160 nM
same,GI50,"786-0, read-out: GI50",160 nM
same,NCI-60 screening: Log(GI50),A498 (RE) cell line,-6.6
same,NCI-60 screening: Log(RedIndex),A498 (RE) cell line,1.04
same,GI50,"A498 (RE) cell line, read-out: NCI-60 screening: Raw GI50",250 nM
same,GI50,"A498, read-out: GI50",250 nM
same,GI50,"A549/ATCC, read-out: GI50",150 nM
same,NCI-60 screening: Log(GI50),ACHN (RE) cell line,-7.25
same,NCI-60 screening: Log(RedIndex),ACHN (RE) cell line,0.94
same,GI50,"ACHN (RE) cell line, read-out: NCI-60 screening: Raw GI50",56 nM
same,GI50,"ACHN, read-out: GI50",56 nM
same,GI50,"BT-549, read-out: GI50",230 nM
same,NCI-60 screening: Log(GI50),CAKI-1 (RE) cell line,-6.57
same,NCI-60 screening: Log(RedIndex),CAKI-1 (RE) cell line,0.74
same,GI50,"CAKI-1 (RE) cell line, read-out: NCI-60 screening: Raw GI50",270 nM
same,GI50,"CAKI-1, read-out: GI50",270 nM
same,GI50,"CCRF-CEM, read-out: GI50",220 nM
same,GI50,"COLO 205, read-out: GI50",340 nM
same,NCI-60 screening: Log(GI50),DU-145 (PR) cell line,-7.23
same,NCI-60 screening: Log(RedIndex),DU-145 (PR) cell line,0.89
same,GI50,"DU-145, read-out: GI50",59 nM
same,GI50,"EKVX, read-out: GI50",320 nM
same,GI50,"HCC-2998, read-out: GI50",160 nM
same,GI50,"HCT-15, read-out: GI50",260 nM
same,GI50,"HCT-116, read-out: GI50",160 nM
same,GI50,"HL-60(TB), read-out: GI50",120 nM
same,GI50,"HOP-62, read-out: GI50",110 nM
same,GI50,"HOP-92, read-out: GI50",350 nM
same,GI50,"HT29, read-out: GI50",270 nM
same,NCI-60 screening: Log(GI50),IGROV1 (OV) cell line,-6.3
same,NCI-60 screening: Log(RedIndex),IGROV1 (OV) cell line,0.66
same,GI50,"IGROV1, read-out: GI50",500 nM
same,GI50,"K-562, read-out: GI50",160 nM
same,GI50,"KM12, read-out: GI50",270 nM
same,GI50,"LOX IMVI, read-out: GI50",210 nM
same,GI50,"M14, read-out: GI50",190 nM
same,GI50,"MALME-3M, read-out: GI50",280 nM
same,GI50,"MCF7, read-out: GI50",35 nM
same,GI50,"MDA-MB-435, read-out: GI50",210 nM
same,GI50,"MDA-MB-468, read-out: GI50",170 nM
same,GI50,"MOLT-4, read-out: GI50",90 nM
same,"GI50/IC50, mean","NCI-60 vs ProliFiler, 19 overlapping cell lines",4.0
same,GI50,"NCI-H23, read-out: GI50",55 nM
same,GI50,"NCI-H226, read-out: GI50",430 nM
same,NCI-60 screening: Log(GI50),NCI-H460 (LC) cell line,-7.25
same,NCI-60 screening: Log(RedIndex),NCI-H460 (LC) cell line,0.96
same,GI50,"NCI-H460 (LC) cell line, read-out: NCI-60 screening: Raw GI50",56 nM
same,GI50,"NCI-H460, read-out: GI50",56 nM
same,NCI-60 screening: Log(GI50),NCI-H522 (LC) cell line,-6.58
same,NCI-60 screening: Log(RedIndex),NCI-H522 (LC) cell line,0.81
same,GI50,"NCI-H522 (LC) cell line, read-out: NCI-60 screening: Raw GI50",260 nM
same,GI50,"NCI-H522, read-out: GI50",260 nM
same,NCI-60 screening: Log(GI50),OVCAR-3 (OV) cell line,-6.63
same,NCI-60 screening: Log(RedIndex),OVCAR-3 (OV) cell line,0.95
same,GI50,"OVCAR-3, read-out: GI50",240 nM
same,NCI-60 screening: Log(GI50),OVCAR-4 (OV) cell line,-6.33
same,NCI-60 screening: Log(RedIndex),OVCAR-4 (OV) cell line,0.7
same,GI50,"OVCAR-4, read-out: GI50",460 nM
same,NCI-60 screening: Log(GI50),OVCAR-5 (OV) cell line,-6.51
same,NCI-60 screening: Log(RedIndex),OVCAR-5 (OV) cell line,1.22
same,GI50,"OVCAR-5, read-out: GI50",310 nM
same,NCI-60 screening: Log(GI50),OVCAR-8 (OV) cell line,-6.73
same,NCI-60 screening: Log(RedIndex),OVCAR-8 (OV) cell line,0.95
same,GI50,"OVCAR-8 (OV) cell line, read-out: NCI-60 screening: Raw GI50",190 nM
same,GI50,"OVCAR-8, read-out: GI50",190 nM
same,NCI-60 screening: Log(GI50),PC-3 (PR) cell line,-6.14
same,NCI-60 screening: Log(RedIndex),PC-3 (PR) cell line,0.64
same,GI50,"PC-3, read-out: GI50",720 nM
same,GI50,"RPMI-8226, read-out: GI50",220 nM
same,NCI-60 screening: Log(GI50),RXF 393 (RE) cell line,-6.83
same,NCI-60 screening: Log(RedIndex),RXF 393 (RE) cell line,0.85
same,GI50,"RXF 393 (RE) cell line, read-out: NCI-60 screening: Raw GI50",150 nM
same,GI50,"RXF 393, read-out: GI50",150 nM
same,GI50,"SF-268, read-out: GI50",190 nM
same,GI50,"SF-295, read-out: GI50",140 nM
same,GI50,"SF-539, read-out: GI50",170 nM
same,GI50,"SK-MEL-5, read-out: GI50",170 nM
same,GI50,"SK-MEL-28, read-out: GI50",290 nM
same,NCI-60 screening: Log(GI50),SK-OV-3 (OV) cell line,-6.58
same,NCI-60 screening: Log(RedIndex),SK-OV-3 (OV) cell line,0.91
same,GI50,"SK-OV-3 (OV) cell line, read-out: NCI-60 screening: Raw GI50",260 nM
same,GI50,"SK-OV-3, read-out: GI50",260 nM
same,NCI-60 screening: Log(GI50),SN12C (RE) cell line,-6.54
same,NCI-60 screening: Log(RedIndex),SN12C (RE) cell line,0.62
same,GI50,"SN12C (RE) cell line, read-out: NCI-60 screening: Raw GI50",290 nM
same,GI50,"SN12C, read-out: GI50",290 nM
same,GI50,"SNB-19, read-out: GI50",250 nM
same,GI50,"SR, read-out: GI50",34 nM
same,GI50,"SW-620, read-out: GI50",220 nM
same,GI50,"T-47D, read-out: GI50",700 nM
same,NCI-60 screening: Log(GI50),TK-10 (RE) cell line,-5.47
same,NCI-60 screening: Log(RedIndex),TK-10 (RE) cell line,-0.07
same,GI50,"TK-10, read-out: GI50",3400 nM
